# Measurements from patent US5688787A, “Substituted β-lactam compounds useful as hypochlesterolemic agents and processes for the preparation thereof” (priority 1996, dated 1997).
# Read-outs that look alike come from different tables or passages of the source.
# Experiments:
# Hyperlipidemic Hamster = assay: In Vivo Assay of Hypolipidemic Agents Using the Hyperlipidemic Hamster; conditions: Mesocricetus auratus, po, 168 h, 7 days, percent change versus control, negative = lowering; for change in vivo at 85 mg/kg: 85 mg/kg once daily oral; for change in vivo at 50 mg/kg: 50 mg/kg once daily oral; for change in vivo at 25 mg/kg: 25 mg/kg once daily oral; for change in vivo at 5 mg/kg: 5 mg/kg once daily oral; for change in vivo at 10 mg/kg: 10 mg/kg once daily oral
# Method in brief: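 Test compound in corn oil was given orally once daily for seven days, starting with a 0.5% cholesterol diet, to groups of six hamsters; corn oil alone served as control. Plasma and hepatic lipids were analysed after decapitation. Results are expressed as percent change relative to control.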
# ACAT = biological target: T1, ACAT (Rattus norvegicus, UniProt Q7TQM4); assay: ACAT Assay (in vitro); assay type: biochemical; conditions: for inhibition at 10 µM: Conc. 10 µM, negative = apparent stimulation, read-out: ACAT (in vitro) % Inhib.; for IC50: rat liver microsomes, read-out: ACAT (in vitro) IC50
# T1 construct: Rat liver microsomes are used as the source of ACAT; from tissue; host or cells: rat liver microsomes
# T1 sequence (Q7TQM4 1-524): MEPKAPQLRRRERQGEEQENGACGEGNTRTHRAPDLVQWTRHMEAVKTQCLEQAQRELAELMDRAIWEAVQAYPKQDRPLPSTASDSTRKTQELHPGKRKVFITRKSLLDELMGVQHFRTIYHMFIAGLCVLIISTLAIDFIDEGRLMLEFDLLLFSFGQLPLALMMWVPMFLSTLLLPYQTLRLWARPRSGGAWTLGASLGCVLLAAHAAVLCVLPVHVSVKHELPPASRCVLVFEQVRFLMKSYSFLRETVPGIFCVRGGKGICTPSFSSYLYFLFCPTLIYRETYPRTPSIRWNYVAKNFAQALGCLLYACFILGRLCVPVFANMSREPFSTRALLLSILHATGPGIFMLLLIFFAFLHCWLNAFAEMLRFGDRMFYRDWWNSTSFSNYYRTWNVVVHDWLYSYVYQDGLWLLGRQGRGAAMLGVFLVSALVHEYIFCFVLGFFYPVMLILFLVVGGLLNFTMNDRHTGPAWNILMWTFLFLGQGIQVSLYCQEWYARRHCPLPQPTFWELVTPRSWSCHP
# [1] = read-out: % Reduction (in vivo) Cholest. Esters
# [2] = read-out: % Reduction (in vivo) Serum Cholest.
SMILES,inhibition at 10 µM (ACAT) [%],change in vivo at 50 mg/kg (Hyperlipidemic Hamster; [1]) [%],change in vivo at 50 mg/kg (Hyperlipidemic Hamster; [2]) [%],further results
CCCCCCCCCC[C@H]1C(=O)N(c2ccc(OC)cc2)[C@H]1c1ccccc1 (relative stereo) [Example 1S],-19,–,–,change in vivo at 85 mg/kg (Hyperlipidemic Hamster; [1]): -32%; change in vivo at 85 mg/kg (Hyperlipidemic Hamster; [2]): 0%
CCCCCCCCCC[C@@H]1C(=O)N(c2ccc(OC)cc2)[C@H]1c1ccccc1 (relative stereo) [Example 1T],-11,0,0,–
COc1ccc(N2C(=O)[C@@H](CCCc3ccccc3)[C@@H]2c2cccc(OC(F)(F)F)c2)cc1 (relative stereo) [Example 1BL],42,0,-10,–
COc1ccc([C@H]2[C@@H](CCOc3ccccc3)C(=O)N2c2ccc(OC)cc2)cc1 (relative stereo) [Example 1CD],84,-23,0,IC50 (ACAT): 7 µM
CCOc1ccc([C@H]2[C@@H](CCCc3ccccc3)C(=O)N2c2ccc(OC)cc2)cc1 (relative stereo) [Example 1BO],79,-93,-48,IC50 (ACAT): 5.4 µM
COc1ccc(N2C(=O)[C@@](Cc3ccccc3)(c3ccccc3)[C@@H]2c2ccccc2)cc1 (relative stereo) [Example 1X],9,0,-12,–
COc1ccc(N2C(=O)[C@@H](CCCc3ccccc3)[C@H]2c2cccc(OC)c2)cc1 (relative stereo) [Example 1P],39,-54,-19,–
COc1ccc([C@H]2[C@@H](CCCc3ccccc3)C(=O)N2c2ccc(OCc3ccccc3)cc2)cc1 (relative stereo) [Example 35],18,-32,-15,–
CC[C@@]1(CCCc2ccccc2)C(=O)N(c2ccc(OC)cc2)[C@@H]1/C=C/c1ccccc1 (relative stereo) [Example 3],56,0,0,–
COc1ccc(N2C(=O)[C@@H](CCCc3ccccc3)[C@H]2c2ccc(O)cc2)cc1 (relative stereo) [Example 1L],20,-75,-31,change in vivo at 5 mg/kg (Hyperlipidemic Hamster; [1]): -30%; change in vivo at 5 mg/kg (Hyperlipidemic Hamster; [2]): -25%; change in vivo at 10 mg/kg (Hyperlipidemic Hamster; [1]): -34%; change in vivo at 10 mg/kg (Hyperlipidemic Hamster; [2]): -22%
CC[C@@H]1C(=O)N(c2ccc(OC)cc2)[C@H]1c1ccc([N+](=O)[O-])cc1 (relative stereo) [Example 1AJ],-17,0,0,–
CC[C@@]1(c2ccccc2)C(=O)N(c2ccc(OC)cc2)[C@H]1c1ccc(OC)cc1 (relative stereo) [Example 1CK],-12,-28,0,–
COc1ccc([C@H]2[C@@H](CCc3ccccc3)C(=O)N2c2ccc(OC)cc2)cc1 (relative stereo) [Example 1CC],46,0,0,–
COc1ccc(C=C[C@H]2[C@H](CCCc3ccccc3)C(=O)N2c2ccc(OC)cc2)cc1 (relative stereo) [Example 1M],80,–,–,change in vivo at 25 mg/kg (Hyperlipidemic Hamster; [1]): -31%; change in vivo at 25 mg/kg (Hyperlipidemic Hamster; [2]): -11%; IC50 (ACAT): 7 µM
COc1ccc(N2C(=O)[C@H](CCCc3ccccc3)[C@@H]2c2ccc3c(c2)OCO3)cc1 (relative stereo) [Example 1CN],-28,0,0,–
COc1ccc(N2C(=O)[C@@H](CCCc3ccccc3)[C@@H]2c2ccsc2)cc1 (relative stereo) [Example 1BP],58,0,-9,–
COc1ccc(N2C(=O)[C@H](CCCc3ccccc3)[C@@H]2c2ccc(OC)c(OC)c2)cc1 (relative stereo) [Example 1BB],-16,0,0,–
COc1ccc(N2C(=O)[C@@H](CCCc3ccccc3)[C@@H]2C=Cc2ccccc2)cc1 (relative stereo) [Example 1K],-70,0,0,–

# Continued, in another order:
inhibition at 10 µM (ACAT) [%],SMILES,change in vivo at 50 mg/kg (Hyperlipidemic Hamster; [1]) [%],change in vivo at 50 mg/kg (Hyperlipidemic Hamster; [2]) [%],further results
53,COc1ccc(N2C(=O)[C@H](CCCc3ccccc3)[C@H]2c2ccc(OC)c(OC)c2)cc1 (relative stereo) [Example 5P],-33,-11,–
60,CCCCCCCCCC[C@]1(CC)C(=O)N(c2c(OC)cc(OC)cc2OC)[C@@H]1c1ccccc1 (relative stereo) [Example 3V],0,0,IC50 (ACAT): 6.5 µM
84,COc1ccc(N2C(=O)[C@](CCCc3ccccc3)(c3ccccc3)[C@@H]2c2ccccc2)cc1 (relative stereo) [Example 3B],-16,-11,–
2,COc1ccc(N2C(=O)[C@@H](CCCc3ccccc3)[C@H]2c2ccc(CO)cc2)cc1 (relative stereo) [Example 15A],0,0,–
8,COc1ccc(N2C(=O)[C@H](CCCc3ccccc3)[C@H]2c2ccc(O)cc2)cc1 (relative stereo) [Example 8F],-48,-16,change in vivo at 25 mg/kg (Hyperlipidemic Hamster; [1]): -45%; change in vivo at 25 mg/kg (Hyperlipidemic Hamster; [2]): -20%
3,CCCCCCCCCC[C@]1(CC)C(=O)N(c2ccc(OC)cc2)[C@H]1c1ccccc1 (stereo in doubt) [Example 3Q],0,-6,–
33,CC[C@@]1(CCCc2ccccc2)C(=O)N(c2ccc(OC)cc2)[C@H]1c1ccccc1 (relative stereo) [Example 3A],-29,-12,–
-22,COc1ccc([C@@H]2N(c3ccc(OC)cc3)C(=O)[C@@]2(c2ccccc2)C2CCCC2)cc1 (relative stereo) [Example 7AD],-12,-12,–
19,COc1ccc(N2C(=O)[C@@](C)(CCCCc3ccccc3)[C@@H]2c2ccccc2)cc1 (relative stereo) [Example 3K],0,0,–
62,COc1ccc(N2C(=O)C(CCCc3ccccc3)(CCCc3ccccc3)C2C=Cc2ccccc2)cc1 (stereo not shown) [Example 3N],0,0,–
30,COc1ccc([C@@H]2[C@@H](CCCCc3ccccc3)C(=O)N2c2ccc(OC)cc2)cc1 (relative stereo) [Example 5AB],-72,-28,–
65,CCOc1ccc(N2C(=O)[C@H](CCCc3ccccc3)[C@@H]2c2ccc(OC)cc2)cc1 (relative stereo) [Example 35B],-99,-53,–
